Assay results from patent US20250353847A1, “CRYSTALLINE FORMS OF AN AKRIC3 DEPENDENT KARS INHIBITOR” (Novartis AG, priority 2022, published 2025).

Legend:
Assay type in all cases: physicochemical
[1] = Stability in 0.1% solutions or suspensions, 1 week 80° C. (pH stability study); parameters: key to CL color: A: No change of color; B: Slight discoloration; C: Medium discoloration; D: Strong discoloration; —: Test not performed; key to Suspension or clear solution after stress test: ↓: Suspension; *: Clear solution after stress test; settings: for Suspension or clear solution after stress test: 0.1%
Experimental: In a pH stability study, 0.1% suspension/solutions of the compound of Formula (I) in buffer solutions of various pHs were exposed to 80° C. for one week. The compound of Formula (I) degraded the most in pH 1 buffer, about 5%, whereas at high pH degradation was less than 1% after 1 week at 80° C.

[2] = Solid state bulk stability, 1 week 80° C. tight container and 80° C./75% RH; settings: for Bulk (XRPD) solid form after stress / DP[%] degradation products, Bulk (HPLC): Solid state
[3] = Stability 1% in excipient mixtures, 2 weeks 50° C.
From the text: (§1) Both solid forms of the Compound of Formula (I) are also stable in mixtures with excipients.

[4] = Xenon light stress (1200 kLuxh); parameters: key to CL color: A: No change of color; B: Slight discoloration; C: Medium discoloration; D: Strong discoloration; —: Test not performed; settings: for Bulk (XRPD) solid form after stress / CL color / DP[%] degradation products, Bulk (HPLC): Xenon light (1200 kLuxh); for CL color: bulk
From the text: as §1

[5] = Hygroscopicity / water uptake
Experimental: The maximum water uptake of Form A is 0.6% at 95% relative humidity at 25° C. Form A is stable at water activity of aw=0.7 at 25° C.
Form A is an anhydrous crystalline form with a melting onset of about 208° C. and melting enthalpy of about 111-119 J/g.

[6] = Slurry experiments of Form A and Hydrate HA in media with different water activities
Experimental: Form A is stable at water activities of aw=0.7 and below, whereas the hydrate is stable at aw=0.9 and above. At 40° C. Form A is stable at water activities of aw=0.8 and below, whereas the hydrate is stable at aw>0.95.

[7] = Competitive slurry experiments and equilibration studies in solvents; settings: for Outcome of competitive slurry experiment with Form A: 25° C.
[8] = Solid form transformation / decomposition upon heating
Experimental: DSC thermograms were recorded with a TA Discovery DSC instrument using heat flux compensation (TA Instruments, USA). The TA Discovery instrument was calibrated for temperature and enthalpy according to the manufacturer's instructions using certified reference substances like indium. About 2 mg of sample material was sealed in a standard pin-holed aluminum pan and heated in the DSC from 0° C. to 300° C., at a heating rate of 10° C./min. Dry nitrogen gas, at a flow rate of 50 ml/min was used to purge the DSC equipment during the measurement.
Thermogravimetric analysis was performed using a TA Discovery TGA instrument (TA Instruments, USA). About 2-10 mg of sample material was sealed in a standard aluminum pan with pierced lid and heated in the TGA from 30° C. to 250° C., at a heating rate of 10° C./min. Dry N2 gas, at a flow rate of 20 ml/min was used to purge the TGA equipment during the measurement.

[9] = Stability in 0.1% solutions or suspensions, 1 week 80° C. (pH stability study); parameters: key to CL color: A: No change of color; B: Slight discoloration; C: Medium discoloration; D: Strong discoloration; —: Test not performed; key to Suspension or clear solution after stress test: ↓: Suspension; *: Clear solution after stress test; settings: for CL color / DP[%] degradation products (HPLC area-%): 0.1% solution or suspension; for CL color / DP[%] degradation products (HPLC area-%) / Suspension or clear solution after stress test: 1 week 80° C.; for Suspension or clear solution after stress test: 0.1%
Humidity controlled XRPD = test: Humidity controlled XRPD
[10] = 80° C. and 80° C. and 75% RH for one week
[11] = 1 week 80° C., tight container, listed as Modification A (NX-27)
[12] = listed as Modification A (NX-27)

O=C1CC2(CCN(C(=O)NCc3ccc(F)cc3)CC2)Nc2ccc(F)cc21 [Form A, 6′-fluoro-N-(4-fluorobenzyl)-4′-oxo-3′,4′-dihydro-1′H-spiro[piperidine-4,2′-quinoline]-1-carboxamide]
DP[%] degradation products (HPLC area-%) ([1]; 0.1% solution or suspension, NMP): 14.3%
CL color ([1]; 0.1% solution or suspension, pH 4.7, acetate buffer): A
Suspension or clear solution after stress test ([1]; Water): ↓
Suspension or clear solution after stress test ([1]; pH 1.0, 0.1N HCl): ↓
Suspension or clear solution after stress test ([1]; pH 3.0, citrate buffer): ↓
Suspension or clear solution after stress test ([1]; pH 6.8, phosphate buffer): ↓
Suspension or clear solution after stress test ([1]; pH 9.0, borate buffer): ↓
Chemical stability in the bulk [2, 10]: chemically stable
Bulk (XRPD) solid form after stress [2, 11]: No change
DP[%] degradation products, Bulk (HPLC) [2, 11]: 0.6%
DP[%] degradation products, Bulk (HPLC) ([2]; 1 week 80° C./75% RH): 0.7%
Bulk (XRPD) solid form after stress ([2]; 1 week 80° C./75% RH, listed as Modification A (NX-27)): No change
Physical stability in bulk ([2]; bulk): physically stable
DP[%] degradation products ([3]; 1% in mixture 1 (Dry Blend), 2 weeks 50° C., tight container, listed as Modification A (NX-27)): 0.4%
DP[%] degradation products ([3]; 1% in mixture 1 (Dry Blend), 2 weeks 50° C./75% RH, listed as Modification A (NX-27)): 0.4%
DP[%] degradation products ([3]; 1% in mixture 2 (Wet granulation), 2 weeks 50° C., tight container, listed as Modification A (NX-27)): 0.4%
DP[%] degradation products ([3]; 1% in mixture 2 (Wet granulation), 2 weeks 50° C./75% RH, listed as Modification A (NX-27)): 0.4%
DP[%] degradation products ([3]; 1% in mixture 3 (Roller compaction), 2 weeks 50° C., tight container, listed as Modification A (NX-27)): 0.4%
DP[%] degradation products ([3]; 1% in mixture 3 (Roller compaction), 2 weeks 50° C./75% RH, listed as Modification A (NX-27)): 0.4%
Bulk (XRPD) solid form after stress [4]: No change
CL color [4, 12]: B
DP[%] degradation products, Bulk (HPLC) [4, 12]: 1.2%
Increase in degradation products upon light stress ([4]; listed as Modification A): 0.6%
Hygroscopicity [5]: slightly hygroscopic
Maximum water uptake ([5]; 95% relative humidity at 25° C.): 0.6%
Water activity (aw) at which the form is stable ([6]; 40° C.): ≤ 0.8
Crystal structure after slurrying (equilibration) for prolonged time ([7]; various solvents): preserves its crystal structure
Thermal decomposition temperature ([8]; TGA): 240 °C
CL color ([9]; Acetonitrile): A
DP[%] degradation products (HPLC area-%) ([9]; Acetonitrile): 1.2%
CL color ([9]; Dioxane): A
DP[%] degradation products (HPLC area-%) ([9]; Dioxane): 56.8%
CL color ([9]; Ethanol): A
DP[%] degradation products (HPLC area-%) ([9]; Ethanol): 16.6%
CL color ([9]; MEK): A
DP[%] degradation products (HPLC area-%) ([9]; MEK): 7.6%
CL color ([9]; NMP): A
CL color ([9]; Water): A
DP[%] degradation products (HPLC area-%) ([9]; Water): 1.2%
CL color ([9]; pH 1.0, 0.1N HCl): A
DP[%] degradation products (HPLC area-%) ([9]; pH 1.0, 0.1N HCl): 5.6%
CL color ([9]; pH 3.0, citrate buffer): A
DP[%] degradation products (HPLC area-%) ([9]; pH 3.0, citrate buffer): 1.5%
DP[%] degradation products (HPLC area-%) ([9]; pH 4.7, acetate buffer): 1.4%
CL color ([9]; pH 6.8, phosphate buffer): A
DP[%] degradation products (HPLC area-%) ([9]; pH 6.8, phosphate buffer): 1.2%
CL color ([9]; pH 9.0, borate buffer): A
DP[%] degradation products (HPLC area-%) ([9]; pH 9.0, borate buffer): 1.1%
Suspension or clear solution after stress test ([9]; Acetonitrile): *
Suspension or clear solution after stress test ([9]; Dioxane): *
Suspension or clear solution after stress test ([9]; Ethanol): *
Suspension or clear solution after stress test ([9]; MEK): *
Suspension or clear solution after stress test ([9]; NMP): *
Suspension or clear solution after stress test ([9]; pH 4.7, acetate buffer): ↓

O=C1CC2(CCN(C(=O)NCc3ccc(F)cc3)CC2)Nc2ccc(F)cc21 [Form C, 6′-fluoro-N-(4-fluorobenzyl)-4′-oxo-3′,4′-dihydro-1′H-spiro[piperidine-4,2′-quinoline]-1-carboxamide]
Outcome of competitive slurry experiment with Form A [7]: conversion of Form C into Form A
Transition temperature Form C / Form A (enantiotropic relationship) ([7]; based on competitive slurry experiments): below 25 °C
Temperature of transformation into Form A upon heating ([8]; heating): about 150 °C

O=C1CC2(CCN(C(=O)NCc3ccc(F)cc3)CC2)Nc2ccc(F)cc21 [Form D, 6′-fluoro-N-(4-fluorobenzyl)-4′-oxo-3′,4′-dihydro-1′H-spiro[piperidine-4,2′-quinoline]-1-carboxamide]
Outcome of competitive slurry experiment with Form A [7]: will convert into Form A
Temperature of transformation into Form A upon heating ([8]; heating): above 190 °C

O=C1CC2(CCN(C(=O)NCc3ccc(F)cc3)CC2)Nc2ccc(F)cc21 [Hydrate HA, 6′-fluoro-N-(4-fluorobenzyl)-4′-oxo-3′,4′-dihydro-1′H-spiro[piperidine-4,2′-quinoline]-1-carboxamide]
Water activity (aw) at which the form is stable ([6]; 25° C.): ≥ 0.9
Water activity (aw) at which the form is stable ([6]; 40° C.): > 0.95
Form change after exposure to low humidity (Humidity controlled XRPD; about 12 hours at 5% RH): XRPD pattern changed to Form E
Stability of form in humidity controlled XRPD (Humidity controlled XRPD; relative humidity decreased from 40% RH to 5% RH at 25° C.): remains stable
Temperature of transformation into Form E ([8]; heating): about 70 °C

O=C1CC2(CCN(C(=O)NCc3ccc(F)cc3)CC2)Nc2ccc(F)cc21 [amorphous, 6′-fluoro-N-(4-fluorobenzyl)-4′-oxo-3′,4′-dihydro-1′H-spiro[piperidine-4,2′-quinoline]-1-carboxamide]
Chemical stability in the bulk [2, 10]: chemically stable
Solid form change of bulk under stress [2, 10]: crystallized into the crystalline Modification A
Bulk (XRPD) solid form after stress ([2]; 1 week 80° C., tight container): NX Mod A
DP[%] degradation products, Bulk (HPLC) ([2]; 1 week 80° C., tight container): 0.7%
Bulk (XRPD) solid form after stress ([2]; 1 week 80° C./75% RH): NX Mod A
DP[%] degradation products, Bulk (HPLC) ([2]; 1 week 80° C./75% RH): 0.7%
DP[%] degradation products ([3]; 1% in mixture 1 (Dry Blend), 2 weeks 50° C., tight container): 0.8%
DP[%] degradation products ([3]; 1% in mixture 1 (Dry Blend), 2 weeks 50° C./75% RH): 0.8%
DP[%] degradation products ([3]; 1% in mixture 2 (Wet granulation), 2 weeks 50° C., tight container): 0.8%
DP[%] degradation products ([3]; 1% in mixture 2 (Wet granulation), 2 weeks 50° C./75% RH): 0.8%
DP[%] degradation products ([3]; 1% in mixture 3 (Roller compaction), 2 weeks 50° C., tight container): 0.8%
DP[%] degradation products ([3]; 1% in mixture 3 (Roller compaction), 2 weeks 50° C./75% RH): 0.8%
Bulk (XRPD) solid form after stress [4]: No change
DP[%] degradation products, Bulk (HPLC) [4]: 0.7%
CL color [4]: A
Increase in degradation products upon light stress ([4]; listed as amorphous form): no degradation was observed

O=C1CC2(CCN(C(=O)NCc3ccc(F)cc3)CC2)Nc2ccc(F)cc21 [compound of Formula (I), 6′-fluoro-N-(4-fluorobenzyl)-4′-oxo-3′,4′-dihydro-1′H-spiro[piperidine-4,2′-quinoline]-1-carboxamide]
Degradation ([9]; 0.1% suspension/solution at high pH, 1 week at 80° C.): less than 1%
Degradation ([9]; 0.1% suspension/solution in pH 1 buffer, 80° C., one week): about 5%
